The source made the active and inactive calls. Cut-off read from the data, not from the text of the source, for most assays here: actives have a measured EC50 and inactives only a lower limit.
Experiments:
H4 = assay: Luminescence Cell-Based Dose Response HTS to Identify Activators of 5'UTR Stem-Loop Driven Prion Protein mRNA Translation in H4 Neuroglioblastoma Cells. [Related pubchem assays: 1829 (Project Summary), 1814 (Primary HTS)]; type: functional; conditions: Homo sapiens
[1] = Luminescence Cell-Based Dose Confirmation HTS to Identify Activators of 5'UTR Stem-Loop Driven Alpha-Synuclein mRNA Translation in H4 Neuroglioblastoma Cells. [Related pubchem assays: 1829 (Project Summary), 1814 (Primary HTS)]; type: functional
[2] = Luminescence Cell-Based Dose Response HTS to Identify Activators of Luciferase Translation or Activity in H4 […] Cells. [Related pubchem assays: 1829 (Project Summary), 1814 (Primary HTS)]; type: functional
[3] = inhibitors of intracellular T. cruzi replication, confirmation, NIH3T3 host cells, beta-gal luminescence (AID 2044); type: functional, cell-based;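 note: intracellular parasites grown in NIH/3T3 mouse fibroblasts as host cells; luminescent beta-galactosidase reporter signal from transgenic T. cruzi replicating inside host cells; inhibitors lower the luminescence signal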
[4] = cytotoxicity toward NIH3T3 fibroblasts, dose response, counter-screen, cell-based, ATP luminescence, mouse fibroblasts (AID 2010); type: functional;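 note: cells exposed to compound for about 90 hours before reading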
[5] = target: T1, Calpain-2 catalytic subunit (Sus scrofa, UniProt P43367); assay: pig calpain II inhibitor potency, dose response, biochemical, fluorogenic peptide substrate (AID 1420); type: functional
T1 sequence (P43367 whole entry): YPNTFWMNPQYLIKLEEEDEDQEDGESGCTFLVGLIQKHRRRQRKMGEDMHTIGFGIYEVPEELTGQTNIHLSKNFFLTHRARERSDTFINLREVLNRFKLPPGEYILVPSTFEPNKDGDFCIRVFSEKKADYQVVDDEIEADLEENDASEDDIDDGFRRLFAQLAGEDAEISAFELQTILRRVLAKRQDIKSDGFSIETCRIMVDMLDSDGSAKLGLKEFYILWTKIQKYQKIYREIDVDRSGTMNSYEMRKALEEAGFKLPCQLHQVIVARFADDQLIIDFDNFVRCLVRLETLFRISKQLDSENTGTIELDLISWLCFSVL

cells = type: functional

Row | Structure (SMILES) | EC50 (H4) | EC50 [1] | EC50 [2] | IC50 [5] | other results
1 | CC(=O)N1N=C(c2ccccc2)CC1c1cn(C)c2ccccc12 (stereo not given) | 53 µM (active) | 9.19 µM (active) | 10.4 µM (active) | – | –
2 | COc1ccc(CCn2c(=N)c(C(=O)NCC3CCCO3)cc3c(=O)n4cccc(C)c4nc32)cc1 (stereo not given) | > 120 µM (not active) | > 120 µM (not active) | 34.5 µM (active) | – | EC50 [3]: 1.2 µM (active); EC50 [4]: > 30 µM (not active)
3 | O=C(CCSc1ccccc1)NC(=O)COC(=O)C1CCCCC1 | – | – | – | 6.64 µM (not active) | –
4 | CCc1ccc(-c2cc(C(=O)NCc3ccccn3)c3ccccc3n2)cc1 | 11.4 µM (active) | 6.99 µM (active) | 21.4 µM (active) | – | –
5 | CCOc1ccccc1N(CC(=O)OC)S(=O)(=O)c1ccccc1 | – | – | – | 35 µM (not active) | –
6 | CCOC(=O)C1CCCN(S(=O)(=O)c2cccs2)C1 (stereo not given) | – | – | – | < 0.4 µM (not active) | –
7 | O=C(COc1ccc(C(=O)c2ccccc2)cc1)NC1CCCCCC1 | – | – | – | 22.9 µM (not active) | –
8 | COc1ccc(NC(=O)c2ccccc2SC)cc1 | – | – | – | 8.1 µM (not active) | –
9 | COc1ccc(OC(=O)c2cnn(-c3ccccc3)c2C)cc1 | 1.93 µM (active) | 9.33 µM (active) | 1.26 µM (active) | – | –
10 | O=C(CCN1CCC(c2cccs2)=N1)c1cccs1 | 15.5 µM (active) | 15.7 µM (active) | 17.8 µM (active) | – | IC50 (cells): 35.8 µM (active)
11 | Cc1cccc(C)c1N(CC(=O)Nc1cc(Cl)ccc1Oc1ccccc1)S(C)(=O)=O | – | – | – | 2.8 µM (not active) | –
12 | Cc1cc(C)n(C(=N)NC(=O)c2ccc([N+](=O)[O-])cc2)n1 | 110 µM (active) | 18.9 µM (active) | 26.7 µM (active) | – | –
13 | CCn1c(/C=C/Nc2ccccc2)[n+](CC)c2ccc(C(=O)OCC(F)(F)F)cc21 | – | – | – | 6.92 µM (not active) | –
14 | CN(CC(=O)N1CCCCCC1)S(=O)(=O)c1ccccc1 | 18.1 µM (active) | 15.4 µM (active) | 20.8 µM (active) | – | –
15 | S=C(NCCc1ccccc1)N1CCc2ccccc2C1 | 26.3 µM (active) | 12.2 µM (active) | 9.54 µM (active) | – | –
16 | COc1ccc(CCNc2oc(COc3ccc(F)cc3)nc2C#N)cc1 | – | – | – | 9.9 µM (not active) | –
17 | CCN1C(=O)/C(=C/c2nc3ccccc3c(=O)n2-c2ccc(C)cc2)c2ccccc21 | 49.8 µM (active) | 11 µM (active) | > 120 µM (not active) | – | EC50 [3]: 1.79 µM (active); EC50 [4]: > 60 µM (not active)
